Biological target: T1, Enoyl-acyl-carrier protein reductase (Plasmodium falciparum, UniProt Q965D5)
T1 sequence (Q965D5 whole entry): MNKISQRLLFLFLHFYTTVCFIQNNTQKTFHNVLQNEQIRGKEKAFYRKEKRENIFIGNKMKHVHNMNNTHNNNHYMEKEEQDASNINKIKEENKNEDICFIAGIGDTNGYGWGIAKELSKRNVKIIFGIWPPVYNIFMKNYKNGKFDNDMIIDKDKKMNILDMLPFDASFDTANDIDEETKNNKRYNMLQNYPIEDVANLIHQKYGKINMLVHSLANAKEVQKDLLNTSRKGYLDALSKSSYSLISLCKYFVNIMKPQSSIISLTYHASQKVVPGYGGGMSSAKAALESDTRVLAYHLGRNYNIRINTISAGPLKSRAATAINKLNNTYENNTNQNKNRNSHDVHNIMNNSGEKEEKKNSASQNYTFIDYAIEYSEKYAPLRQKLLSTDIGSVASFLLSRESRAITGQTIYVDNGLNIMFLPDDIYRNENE
Assay: Inhibition of Plasmodium falciparum enoyl-ACP reductase assessed as oxidation of NADH to NAD+ after 10 mins by spectrophotometric analysis; call rule not given here

C[C@H]1C[C@@H](O)[C@]2(C)C(C(=O)O)=CCC[C@H]2[C@]1(C)CCc1ccoc1
IC50: Not Active

CCCCCCCCCCCCCCCCCCCCCCOC(=O)/C=C/c1ccc(O)c(O)c1 [DOCOSYL CAFFEATE]
IC50: Not Active

COc1c(-c2ccc(O)cc2)oc2cc(O)cc(O)c2c1=O [ISOKAEMPFERIDE]
IC50: Not Active

COc1ccc(-c2oc3c(Cc4c(O)c(OC)c(O)c5c(=O)c(OC)c(-c6ccc(OC)cc6)oc45)c(O)c(OC)c(O)c3c(=O)c2OC)cc1 [METHYLENEBISSANTIN]
IC50 (read-out: IC50): 91.1 µM

CC(C)=CCc1cc(O[C@@H]2O[C@H](CO)[C@@H](O)[C@H](O)[C@H]2O)ccc1O [NEBRODENSIDE A]
IC50: Not Active

COc1cc(C(=O)O)ccc1O [VANILLIC ACID]
IC50 (read-out: IC50): 920 µM
